Assays:
[1] = biological target: cathepsin B (Tb CatB) (Trypanosoma brucei, UniProt Q6R7Z5); experiment: Enzymatic inhibition of recombinant Tb CatB, fluorogenic Z-Phe-Arg-AMC substrate; format: biochemical; conditions: for % inhibition (DMSO) TbCat B: concentration not given; for activity against cathepsin B (in words): summary statement, said to indicate selectivity
Protocol: (§1) Inhibition of cysteine-proteases cruzain, rhodesain, cathepsin B (Tb CatB) and falcipain (FP2) was assessed by quantification of the resulting fluorescence emission of the proteolytic breakdown of synthetic compound Z-Phe-Arg-AMC (Bachem). Inhibitors Ia or Ib were used at concentrations ranging form 10 nM to 10.000 nM (from 500 nM to 10000 nM for Tb CatB); thus, serial dilutions in DMSO were prepared with the minimal concentration of inhibitor Ia or Ib used for calculations and at least 10 times higher than that of the enzyme. These experiments were performed by distributing inhibitor Ia or Ib in 96 wells, fluorescence was recorded on a Flex Station fluorimeter (Molecular Devices), 355 nm excitation and 460 nm emission at 25° C., distributing 100 μl of substrate using a multichannel pipette at a similar volume of the inhibitor enzyme preincubated at 25° C. for 5 minutes. In each series of experiments, the enzyme with DMSO and the enzyme in the presence of the known irreversible inhibitor K11777 (N methyl piperazine-Phe-HPhe-(CH═CHSO2 Ph)), Arris Pharmaceuticals Inc., South San Francisco, Calif.) were used as controls.
(§2) Enzyme inhibition data were similarly determined: recombinant cruzain at 4 nM with 5 μM of Z-Phe-Arg-AMC (Km=1 μM) in buffer A (100 mM of sodium acetate, pH 5.5 with 5 mM of DTT and 0.001% Triton-X 100 (Sigma)); recombinant rhodesain at 4 nM of enzyme and 5 μM Z-Phe-Arg-AMC (Km=1 μM) in buffer A; recombinant Tb CatB at 40 nM of enzyme and 5 μM of Z-Phe-Arg-AMC (Km=60 μM) in buffer A and recombinant FP2 at 4 nM with 5 μM of Z-Phe-Arg-AMC (Km=1 μM) in buffer A. IC50 values were determined by direct reading of the semi-log plot of reaction speed versus inhibitor concentration.

[2] = test system: Trypanosoma brucei brucei (Tbb); experiment: Inhibition test on Trypanosoma brucei brucei by ATP-bioluminescence; format: cell-based; conditions: concentration not given
Protocol: Inhibition tests on Trypanosoma brucei brucei were performed by ATP-bioluminescence (Z. B. Mackey et al, Chem. Biol. Drug Des. 2006, 67, pp. 355-363).

[3] = biological target: rhodesain (Trypanosoma brucei rhodesiense, UniProt Q95PM0); experiment: Enzymatic inhibition of recombinant rhodesain, fluorogenic Z-Phe-Arg-AMC substrate; format: biochemical, T. Brucei; conditions: for % inhibition (DMSO) Rhodesain: concentration not given; for activity against rhodesain (in words): summary statement
Sequence of rhodesain (Q95PM0 entry or part of it): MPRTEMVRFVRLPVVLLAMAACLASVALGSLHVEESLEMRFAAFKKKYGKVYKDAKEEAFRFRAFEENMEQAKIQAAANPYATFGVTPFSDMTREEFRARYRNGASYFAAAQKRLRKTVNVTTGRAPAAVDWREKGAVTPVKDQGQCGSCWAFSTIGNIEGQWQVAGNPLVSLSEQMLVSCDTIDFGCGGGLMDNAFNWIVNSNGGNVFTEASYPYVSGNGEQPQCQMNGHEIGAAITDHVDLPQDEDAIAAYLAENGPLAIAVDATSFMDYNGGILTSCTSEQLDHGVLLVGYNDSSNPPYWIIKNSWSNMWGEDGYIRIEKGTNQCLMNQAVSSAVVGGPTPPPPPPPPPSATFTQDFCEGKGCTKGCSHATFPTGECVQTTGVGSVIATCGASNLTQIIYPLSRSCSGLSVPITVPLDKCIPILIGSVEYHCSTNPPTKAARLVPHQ
Protocol: as §1, §2

[4] = biological target: falcipain (FP2) (Plasmodium falciparum, UniProt Q8I6U4); experiment: Enzymatic inhibition of recombinant falcipain (FP2), fluorogenic Z-Phe-Arg-AMC substrate; format: biochemical
Sequence of falcipain (FP2) (Q8I6U4 244-484): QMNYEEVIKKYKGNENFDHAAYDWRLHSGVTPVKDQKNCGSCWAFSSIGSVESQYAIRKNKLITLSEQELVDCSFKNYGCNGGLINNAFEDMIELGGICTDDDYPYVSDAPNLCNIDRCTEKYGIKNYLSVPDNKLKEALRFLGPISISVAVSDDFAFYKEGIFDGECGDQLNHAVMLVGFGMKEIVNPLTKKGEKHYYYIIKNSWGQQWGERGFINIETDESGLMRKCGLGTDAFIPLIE
Protocol: as §1, with “controls. […]” for “controls.”

[5] = biological target: cruzain (Trypanosoma cruzi, UniProt P25779); experiment: biochemical; format: biochemical; conditions: for % inhibition (DMSO) Cruzain: concentration not given; for activity against cruzain (in words): summary statement
Sequence of cruzain (P25779 123-467): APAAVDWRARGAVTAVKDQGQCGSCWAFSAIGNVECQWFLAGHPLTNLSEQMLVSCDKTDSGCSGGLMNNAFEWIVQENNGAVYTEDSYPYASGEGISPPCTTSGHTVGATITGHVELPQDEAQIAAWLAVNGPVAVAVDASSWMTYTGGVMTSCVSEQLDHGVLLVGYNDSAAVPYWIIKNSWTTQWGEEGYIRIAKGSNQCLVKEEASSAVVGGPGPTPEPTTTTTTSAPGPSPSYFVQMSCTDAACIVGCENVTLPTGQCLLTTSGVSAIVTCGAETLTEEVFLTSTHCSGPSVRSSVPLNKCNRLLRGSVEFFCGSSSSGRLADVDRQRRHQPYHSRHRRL

Sequence of cathepsin B (Tb CatB) (Q6R7Z5 entry or part of it): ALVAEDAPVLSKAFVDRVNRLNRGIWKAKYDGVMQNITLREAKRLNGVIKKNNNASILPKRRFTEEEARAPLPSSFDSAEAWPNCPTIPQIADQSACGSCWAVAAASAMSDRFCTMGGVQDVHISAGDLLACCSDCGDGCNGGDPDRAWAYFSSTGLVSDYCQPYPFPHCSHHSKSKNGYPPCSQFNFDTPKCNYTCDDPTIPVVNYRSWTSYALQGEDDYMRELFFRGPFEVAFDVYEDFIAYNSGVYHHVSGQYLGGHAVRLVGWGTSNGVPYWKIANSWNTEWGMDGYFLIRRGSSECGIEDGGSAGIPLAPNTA

Compound	IC50 [1]	% inhibition (DMSO) TbCat B [1]	activity against cathepsin B (in words) [1]	% inhibition (DMSO) Tbb [2]	IC50 [3]	% inhibition (DMSO) Rhodesain [3]	activity against rhodesain (in words) [3]	IC50 [4]	IC50 [5]	% inhibition (DMSO) Cruzain [5]	activity against cruzain (in words) [5]
CCOC(=O)[C@H]1O[C@@H]1C(=O)[C@H](CCc1ccccc1)NC(=O)[C@H](Cc1ccccc1)NC(=O)OCc1ccccc1 [Compound Ia.1, Ethyl (2S,3S)-3-[(2S)-2-((2S)-2-benzyloxycarbonylamino-3-phenylpropionylamino)-4-phenylbutyryl]oxirane-2-carboxylate]	> 1000 nM	51%	not against cathepsin B	42%	3.5 nM	98%	very active	71 nM	20 nM	93%	very active
CCOC(=O)[C@@H]1O[C@H]1C(=O)[C@H](CCc1ccccc1)NC(=O)[C@H](Cc1ccccc1)NC(=O)OCc1ccccc1 [Compound Ib.1, Ethyl (2R,3R)-3-[(2S)-2-((2S)-2-benzyloxycarbonylamino-3-phenylpropionylamino)-4-phenylbutyryl]oxirane-2-carboxylate]	400 nM	47%	not against cathepsin B	−2%	30 nM	80%	very active	44 nM	50 nM	55%	very active
